Columns and labels:
Assay type in all cases: cell-based
ERGL KO HCT116 cells = assay: EPO secretion level (ELISA) from ERGL KO HCT116 cells
Text: (§1) The guide RNAs (gRNAs) flanking the target enhancer regions for ERGIC-53 and MCFD2 were designed using ToolGen’s dRGEN synthesis service (Seoul, South Korea). The target DNA sequences of the gRNAs used in the present study were as follows: for MCFD2 deletion, […], and for ERGIC-53 deletion, […]. The gRNA expression plasmids (pRGEN-U6-sgRNA) were purchased from ToolGen. To generate the KO cells of MCFD2 or ERGIC-53, individual gRNA plasmids and a plasmid-expressing Cas9-green fluorescent protein (GFP) (Addgene, catalog #44719) were transiently transfected into HCT116 cells, which are diploid cells suitable for genome editing using the CRISPR/Cas9 method, in a six-well plate using polyethylenimine “Max” (Polysciences Inc., Warrington, PA) and a Cas9:gRNA molar ratio of 1:5 as described previously. At 48 h post transfection, cells with high GFP expression were identified using fluorescence-activated cell sorting with the BD FACSAria II cell sorter (BD Biosciences, San Jose, CA). For knocking out ERGL in the wild-type and ERGIC-53-KO cells, the Guide-it CRISPR/Cas9 System (green/red) (Takara Bio Inc., Kusatsu, Japan) was used for the cloning and expression of target single gRNAs, whose target ERGL DNA sequences were […] and […]. The two constructed pGuide-it Vectors (green and red) were transiently transfected into HCT116 cells. At 48 h post transfection, cells with high ZsGreen1 and tdTomato expression were identified using fluorescence-activated cell sorting. Sorted cells were plated into individual wells of a 96-well plate and then re-plated as single cells in 6 cm dishes. The deletions in the clones were confirmed by polymerase chain reaction and sequencing analysis (Supplementary Figs. 8, 9, 10, and 11).
(§2) For expression of the FVIII and FV full-length and deletion mutant proteins in mammalian cells, the codon-optimized FVIII and FV genes were inserted into the p3XFLAG-CMV-14 Expression Vector and p3XFLAG-CMV-9 Expression Vector, respectively (Sigma-Aldrich, St. Louis, MO). For the expression of the wild-type and mutated AAT, EPO, and sFγRIIIa in mammalian cells, the corresponding genes (purchased from FASMAC Co., Ltd., Atsuki, Japan) were inserted into the p3XFLAG-CMV-9 Expression Vector (Sigma-Aldrich). […]
(§3) The secreted levels of FVIII and FV antigens in the culture medium were determined with an sandwich enzyme-linked immunosorbent assay (ELISA) method using the VisuLize FVIII Antigen Kit (Affinity Biologicals Inc., Ancaster, ON) and the Asssay Max™ Human Factor V ELISA Kit (ASSAYPRO, MO), respectively. The secreted levels of AAT and EPO antigens in the culture medium were determined with an ELASA method using the anti-AAT antibody (Agilent, Santa Clara, CA) and anti-Flag M2 antibody (Sigma-Aldrich), respectively.

ΔERGIC-53 HCT116 cells = assay: EPO secretion level (ELISA) from ERGIC-53 KO HCT116 cells
Text: as §1, §2, §3

HCT116 cells (WT) = assay: EPO secretion level (ELISA) from wild-type HCT116 cells; settings: for EPO secretion level (Figure 4F): HCT116, alanine substitutions in motif
Text: For expression of the FVIII and FV full-length and deletion mutant proteins in mammalian cells, the codon-optimized FVIII and FV genes were inserted into the p3XFLAG-CMV-14 Expression Vector and p3XFLAG-CMV-9 Expression Vector, respectively (Sigma-Aldrich, St. Louis, MO). For the expression of the wild-type and mutated AAT, EPO, and sFγRIIIa in mammalian cells, the corresponding genes (purchased from FASMAC Co., Ltd., Atsuki, Japan) were inserted into the p3XFLAG-CMV-9 Expression Vector (Sigma-Aldrich).
HCT116 and its mutated cells as well as HEK293T were maintained in Dulbecco’s modified Eagle’s medium (DMEM) supplemented with 10% fetal bovine serum in 5% CO2 at 37 °C. For complementary DNA (cDNA) transfection, cells were grown overnight and transfected using Polyethylenimine “Max” (Polysciences Inc.) as described previously. Expi293F cells (Thermo Fisher Scientific, Waltham, MA) were maintained in Expi293 Expression Medium (Thermo Fisher Scientific) in 5% CO2 at 37 °C on an orbital shaker platform rotating at 125 r.p.m. For cDNA transfection, cells were transfected with the ExpiFectamine 293 Transfection Kit (Thermo Fisher Scientific Inc.). Protein expression was performed in serum-free medium.
as §3

ΔMCFD2 HCT116 cells = assay: EPO secretion level (ELISA) from MCFD2 KO HCT116 cells
Text: as §1, §2, §3

[1] = average, n = 3, EPO in wild type = 1

Question: With “EPO: recombinant Flag-tagged erythropoietin without motif (Fig. 5 prints EPO for mScarlet-I-EPO)” as the substance, how does the “EPO secretion level (Figure 4D), average” value (ERGL KO HCT116 cells; [1]) read?
Answer: 0.7808

Question: And the “EPO secretion level (Figure 4D)” value (ERGL KO HCT116 cells; replicate 1)?
Answer: 0.6104

Question: What about the “EPO secretion level (Figure 4D)” value (ERGL KO HCT116 cells; replicate 2) of the same substance?
Answer: 0.9026

Question: What about the “EPO secretion level (Figure 4D)” value (ERGL KO HCT116 cells; replicate 3) of the same substance?
Answer: 0.8293

Question: What about the “EPO secretion level (Figure 4D), average” value (ΔERGIC-53 HCT116 cells; [1]) of the same substance?
Answer: 1.297

Question: And the “EPO secretion level (Figure 4D)” value (ΔERGIC-53 HCT116 cells; replicate 1)?
Answer: 1.122

Question: And the “EPO secretion level (Figure 4D)” value (ΔERGIC-53 HCT116 cells; replicate 2)?
Answer: 1.395

Question: And the “EPO secretion level (Figure 4D)” value (ΔERGIC-53 HCT116 cells; replicate 3)?
Answer: 1.373

Question: And the “EPO secretion level (Figure 4E), average” value (HCT116 cells (WT); HCT116, N-glycan-deficient mutants, Average, EPO = 1)?
Answer: 1

Question: What about the “EPO secretion level (Figure 4E)” value (HCT116 cells (WT); HCT116, N-glycan-deficient mutants, replicate 1) of the same substance?
Answer: 1.0366

Question: What about the “EPO secretion level (Figure 4E)” value (HCT116 cells (WT); HCT116, N-glycan-deficient mutants, replicate 2) of the same substance?
Answer: 1.006

Question: And the “EPO secretion level (Figure 4E)” value (HCT116 cells (WT); HCT116, N-glycan-deficient mutants, replicate 3)?
Answer: 0.9333

Question: And the “EPO secretion level (Figure 4E)” value (HCT116 cells (WT); HCT116, N-glycan-deficient mutants, replicate 4)?
Answer: 1.024

Question: What about the “EPO secretion level (Figure 4F), average” value (HCT116 cells (WT); HCT116, alanine substitutions in C-terminal motif, Average, n = 3, EPO = 1) of the same substance?
Answer: 1

Question: And the “EPO secretion level (Figure 4F)” value (HCT116 cells (WT); replicate 1)?
Answer: 1.027

Question: And the “EPO secretion level (Figure 4F)” value (HCT116 cells (WT); replicate 2)?
Answer: 1.0473

Question: And the “EPO secretion level (Figure 4F)” value (HCT116 cells (WT); replicate 3)?
Answer: 0.9257

Question: What about the “EPO secretion level (Figure 4C), average” value (HCT116 cells (WT); HCT116, motif position series, average, n = 3 independent transfections, Flag-EPO average = 1) of the same substance?
Answer: 1

Question: And the “EPO secretion level (Figure 4C)” value (HCT116 cells (WT); HCT116, motif position series, replicate 1)?
Answer: 1.0819

Question: What about the “EPO secretion level (Figure 4C)” value (HCT116 cells (WT); HCT116, motif position series, replicate 2) of the same substance?
Answer: 0.9754

Question: And the “EPO secretion level (Figure 4C)” value (HCT116 cells (WT); HCT116, motif position series, replicate 3)?
Answer: 0.9427

Question: And the “EPO secretion level (Figure 4D), average” value (HCT116 cells (WT); Wild type HCT116, KO series, average, n = 3, EPO in wild type = 1)?
Answer: 1

Question: And the “EPO secretion level (Figure 4D)” value (HCT116 cells (WT); Wild type HCT116, KO series, replicate 1)?
Answer: 0.9075

Question: And the “EPO secretion level (Figure 4D)” value (HCT116 cells (WT); Wild type HCT116, KO series, replicate 2)?
Answer: 1.011

Question: What about the “EPO secretion level (Figure 4D)” value (HCT116 cells (WT); Wild type HCT116, KO series, replicate 3) of the same substance?
Answer: 1.081

Question: What about the “EPO secretion level (Figure 4D), average” value (ΔMCFD2 HCT116 cells; [1]) of the same substance?
Answer: 0.9208

Question: And the “EPO secretion level (Figure 4D)” value (ΔMCFD2 HCT116 cells; replicate 1)?
Answer: 0.5997

Question: And the “EPO secretion level (Figure 4D)” value (ΔMCFD2 HCT116 cells; replicate 2)?
Answer: 1.0013

Question: What about the “EPO secretion level (Figure 4D)” value (ΔMCFD2 HCT116 cells; replicate 3) of the same substance?
Answer: 1.162
